Measurements published in patent US20240150346A1, “CLASS OF HETEROAROMATIC COMPOUND, PREPARATION METHOD THEREFOR AND USE THEREOF” (INNOVSTONE THERAPEUTICS LIMITED, priority 2021, published 2024).
Where a name gives a salt, the structure may show the parent alone.

What follows are molecules tested against T1, human-detived receptor TLR8 (Homo sapiens, UniProt Q9NR97) (assay: Assay on agonistic activity for human-detived receptor TLR8 (HEK-Blue hTLR8 cells, HEK-Blue Detection Medium)). Details: 16 h incubation, absorbance at 620 nm.
T1 construct: host or cells: HEK-Blue hTLR8 cells (HEK293-derived reporter line)
T1 sequence (Q9NR97 27-1041): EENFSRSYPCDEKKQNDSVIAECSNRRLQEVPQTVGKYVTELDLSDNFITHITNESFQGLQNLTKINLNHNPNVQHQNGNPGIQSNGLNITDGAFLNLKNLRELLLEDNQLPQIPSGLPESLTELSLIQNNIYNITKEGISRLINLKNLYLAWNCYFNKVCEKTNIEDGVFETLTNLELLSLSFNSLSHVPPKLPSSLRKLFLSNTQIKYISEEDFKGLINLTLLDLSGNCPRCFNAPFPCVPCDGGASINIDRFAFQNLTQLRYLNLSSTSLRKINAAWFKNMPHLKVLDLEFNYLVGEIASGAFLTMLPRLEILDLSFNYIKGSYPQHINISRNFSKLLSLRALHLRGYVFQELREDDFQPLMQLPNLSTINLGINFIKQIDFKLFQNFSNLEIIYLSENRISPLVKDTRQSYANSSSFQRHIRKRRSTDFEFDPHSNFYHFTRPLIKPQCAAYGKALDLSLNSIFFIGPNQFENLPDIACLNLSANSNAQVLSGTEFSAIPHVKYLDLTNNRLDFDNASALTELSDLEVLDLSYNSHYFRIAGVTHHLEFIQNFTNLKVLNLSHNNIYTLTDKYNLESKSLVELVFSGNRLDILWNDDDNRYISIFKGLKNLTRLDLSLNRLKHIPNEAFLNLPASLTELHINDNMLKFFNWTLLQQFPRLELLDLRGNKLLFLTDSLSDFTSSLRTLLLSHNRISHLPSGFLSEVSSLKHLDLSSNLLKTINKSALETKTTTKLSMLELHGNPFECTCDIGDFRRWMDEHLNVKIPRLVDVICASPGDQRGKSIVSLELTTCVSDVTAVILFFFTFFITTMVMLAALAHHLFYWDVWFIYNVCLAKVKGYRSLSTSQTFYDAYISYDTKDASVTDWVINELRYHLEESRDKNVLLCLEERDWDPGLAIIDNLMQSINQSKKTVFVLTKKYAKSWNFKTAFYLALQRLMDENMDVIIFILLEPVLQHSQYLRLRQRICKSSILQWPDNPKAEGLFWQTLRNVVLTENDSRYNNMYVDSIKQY
Format: cell-based
Description: The assay on the agonistic activity for human-detived receptor TLR7 was performed as that in Test Example 1; • the method for assaying the agonistic activity for the human-detived receptor TLR8 was as follows: HEK-Blue™ hTLR8 cells (InvivoGen, hkb-htlr8) were cultured in a DMEM complete medium (Gibco, 11965-092) containing 10% FBS (Invitrogen, 10099-141c), 1% P/S (Invitrogen, 15140-122), 10 μg/mL Blasticidin (InvivoGen, R210-01), 100 μg/mL Zeocin (InvivoGen, ant-zn), and 100 μg/mL Normocin (InvivoGen, Ant-nr-2). The cells were cultured in an incubator at 37° C. with 5% CO2. When HEK-Blue™ hTLR8 cells reached a growth density of 70%-80%, cell passage was needed.
The agonistic activity for the human-detived receptor TLR8 by HEK-Blue™ hTLR8 cells was assayed by HEK-Blue™ Detection Medium (InvivoGen, hb-det3). First, a bag of HEK-Blue™ Detection Medium powder was completely dissolved, and then filtered through a 0.22 μm filter. Antibiotics were then added until the final concentration was 1% P/S and 100 μg/mL Normocin. HEK-Blue™ Detection Medium was pre-heated to 37° C. in advance on the day of the assay on the activity for the TLR8 receptor, and the temperature was always maintained at 37° C.
The compound powder was dissolved in 100% DMSO (Sigma, D8418-1L) to obtain a 10 mM stock solution, and the compound was completely dissolved by shaking with an oscillator for later use.
The cell culture medium was removed from HEK-Blue™ hTLR8 cells with a growth density of 70-80%. Then, the cells were washed 2-3 times with PBS (Gibco, 10010-031). The cells were digested and then pipetted with a DMEM cell culture medium to a single cell suspension, which was then centrifuged at 1000 rpm for 10 min to collect the cell pellet. […] The cells were counted, diluted to a plating density, and transferred to a 384-well cell culture plate (Corning, 3764). […] After incubation in an incubator at 37° C. for 16 h, the absorbance was read at 620 nm using a microplate reader (PerkinElmer, VICTOR Nivo).
The EC50 of the compound was calculated using the GraphPad Prism 8 software (GraphPad Software, USA). The reading of the negative control well (the well without the compound) was subtracted from the absorbance reading at 620 nm of the compound, and was divided by the ratio of the difference between the positive control (1 μM positive compound) and the negative control well, so that the percentage of the ratio of each well to the ratio of the positive control well (the well treated with 10 μM positive compound), i.e., the percentage of activity, was calculated. Finally, the sigmoidal dose-response (variable slope) curve between the percentage of activity and the concentration of the compound was calculated using the software GraphPad Prism to calculate the EC50 of the compound.

SMILES	EC50
CSc1nc2c(N)nc3ccccc3c2n1Cc1ccc(N2CCN(C)CC2)nc1 [Example 199]	> 10 µM
CSc1nc2c(N)nc3ccccc3c2n1Cc1ccc(CN2CCCC2)cc1 [Example 40, 2-(methylthio)-1-(4-(pyrrolidin-1-ylmethyl)benzyl)-1H-imidazo[4,5-c]quinoline-4-amine]	> 10 µM
COc1cc(CN(C)C)ccc1Cn1c(SC)nc2c(N)nc3ccccc3c21 [Example 240]	> 10 µM
COc1nc2c(N)nc3ccccc3c2n1Cc1ccc(CN2CCCC2)cc1 [Comparative Example 1, 2-methoxy-1-((4-((pyrrolidin-1-yl)methyl)phenyl)methyl)-1H-imidazo[4,5-c]quinolin-4-amine trifluoroacetate, reference compound]	> 10 µM
